Some test systems named below: Vibrio harveyi; Vibrio parahaemolyticus; Lactococcus garvieae; Vibrio alginolyticus; Streptococcus iniae; Escherichia coli JM109; Staphylococcus aureus; Pseudomonas aeruginosa; Fusarium oxysporum; Candida sp.; Serratia marcescens; Escherichia coli; Saccharomyces cerevisiae; Candida albicans; Pseudomonas putida.
Holding throughout (test): ≥ marks a high value that may be exact or a test limit, other limits are often not marked, values filed in µg/mL are converted to µM
The test system of experiment [1] is Vibrio parahaemolyticus BCRC 10806.
In experiment [2] the test system is Streptococcus equinus BCRC 14729.
The subject of experiment [3] is Vibrio anguillarum serotype O1.
Experiment [4] has as its system Staphylococcus xylosus BCRC 12930.
The subject of experiment [5] is Pseudomonas aeruginosa BCRC 10944.
The test system of experiment [6] is Klebsiella oxytoca BCRC 13985.
The test system of experiment [7] is Escherichia coli BCRC 10675.
For experiment [8], the system named is Yersinia enterocolitica BCRC 13999.
For experiment [9], the system named is Listeria monocytogenes BCRC 14845.
Experiment [10] has as its system Enterobacter cloacae BCRC 10401.
Experiment [11] has as its system Klebsiella aerogenes BCRC 10370.
The test system of experiment [12] is Vibrio alginolyticus BCRC 12829.
In experiment [13] the test system is Staphylococcus aureus BCRC 10780.
Experiment [14] deals with Staphylococcus aureus BCRC 10781.
Experiment [15] deals with Staphylococcus aureus KO-4.
For experiment [16], the system named is Trichophyton mentagrophytes IFO 5466.
For experiment [17], the system named is Staphylococcus aureus ATCC 6538P.
Experiment [18] concerns Trypanosoma brucei brucei GUT Tat3.1.
In experiment [19] the test system is Bacillus megaterium ATCC 17749.
Experiment [20] deals with Vibrio metschnikovii NCTC 8483.
In experiment [21] the test system is Escherichia coli 363 ATCC 11775.
Experiment [22] relates to Staphylococcus epidermidis ATCC 12228.
The test system of experiment [23] is Vibrio alginolyticus ATCC 17749.
Experiment [24] has as its system Staphylococcus aureus ATCC 25293.
In experiment [25] the test system is Micrococcus luteus ATCC 4698.
Experiment [26] has as its system Salmonella enterica subsp. enterica serovar Newport.
Experiment [27] relates to Shigella dysenteriae ATCC 9752.
Experiment [28] has as its system Escherichia coli DH5alpha.
The subject of experiment [29] is Bacillus subtilis KCTC 1021.
In experiment [30] the test system is Salmonella enterica subsp. enterica serovar Typhimurium ATCC 14028.
Experiment [31] relates to Pseudomonas aeruginosa ATCC 9027.
Experiment [32] concerns Proteus mirabilis ATCC 25933.
Experiment [33] concerns Klebsiella pneumoniae ATCC 10031.

Each structure is given as a SMILES string. Converted amounts (≈) assume the structure as drawn.

The record followed here is DBAASP.

What is called MIC is the least concentration at which growth counts as inhibited.

Regarding `CC[C@H](C)[C@H](NC(=O)[C@H](Cc1ccc(O)cc1)NC(=O)[C@H](CCCCN)NC(=O)[C@H](Cc1ccc(O)cc1)NC(=O)[C@H](Cc1ccccc1)NC(=O)[C@H](CC(N)=O)NC(=O)[C@H](Cc1ccc(O)cc1)NC(=O)[C@@H](NC(=O)[C@H](Cc1ccc(O)cc1)NC(=O)[C@H](CCCCN)NC(=O)[C@H](C)NC(=O)[C@H](Cc1ccc(O)cc1)NC(=O)[C@H](CCCCN)NC(=O)[C@H](C)NC(=O)CN)[C@@H](C)CC)C(=O)N[C@@H](C)C(=O)N[C@@H](CCCCN)C(=O)N[C@@H](Cc1ccc(O)cc1)C(=O)N[C@H](C(=O)N[C@@H](Cc1c[nH]c2ccccc12)C(=O)O)[C@@H](C)CC` [GAKYAKYIYNFYKYIAKYIW], the minimal inhibitory concentration (MIC) was 24.9 µM (≈ 64 µg/mL) against Vibrio harveyi; 24.9 µM (≈ 64 µg/mL) against Vibrio parahaemolyticus; 24.9 µM (≈ 64 µg/mL) in experiment [1]; no less than 49.9 µM in [2]; no less than 49.9 µM in [3]; 24.9 µM (≈ 64 µg/mL) in experiment [4]. The MIC was 24.9 µM (≈ 64 µg/mL) in [5]; no less than 49.9 µM in experiment [6]; 24.9 µM (≈ 64 µg/mL) in experiment [7]; no less than 99.7 µM in experiment [8]; no less than 49.9 µM in experiment [9]; no less than 99.7 µM in the experiment on Lactococcus garvieae. In addition, the MIC in experiment [10] is 24.9 µM (≈ 64 µg/mL); in experiment [11], 24.9 µM (≈ 64 µg/mL); in [12] it was 24.9 µM (≈ 64 µg/mL); in the experiment on Vibrio alginolyticus it was 24.9 µM (≈ 64 µg/mL); in the experiment with Streptococcus iniae, no less than 49.9 µM; in experiment [13] it was no less than 49.9 µM. In [14], this compound displayed an MIC of no less than 49.9 µM.
As for `CC[C@H](C)[C@H](NC(=O)[C@H](C)NC(=O)[C@H](CC(C)C)NC(=O)[C@H](Cc1ccc(O)cc1)NC(=O)[C@H](CC(C)C)NC(=O)[C@H](C)N)C(=O)N[C@@H](CCCN=C(N)N)C(=O)N[C@@H](CCCN=C(N)N)C(=O)N[C@@H](CCCN=C(N)N)C(N)=O` [ALYLAIRRR], the MIC in [15] is no less than 530 µM; with Escherichia coli JM109, 2.65 µM (≈ 3 µg/mL); in [16] it was no less than 53 µM; in experiment [17], 1.33 µM (≈ 1.5 µg/mL); with Staphylococcus aureus, 21.2 µM (≈ 24 µg/mL); in the experiment on Pseudomonas aeruginosa, 354 µM (≈ 400 µg/mL). The same compound displayed an MIC in experiment [18] of no less than 125 µM.
Turning to `CC(C)C[C@@H]1NC(=O)[C@H](CCCN=C(N)N)NC(=O)[C@H](Cc2cnc[nH]2)NC(=O)[C@H](Cc2c[nH]c3ccccc23)NC(=O)CNC(=O)CNC(=O)[C@@H](N)CSSC[C@@H](C(=O)O)NC(=O)[C@H](CCCN=C(N)N)NC1=O` [CGGWHRLRC], the minimum inhibitory concentration (MIC) in [19] was no less than 51 µM; in [20], no less than 75 µM; with Fusarium oxysporum, 30 µM (≈ 32.6 µg/mL); in experiment [21], no less than 75 µM; in [22], 43 µM (≈ 46.7 µg/mL); in experiment [23] it was no less than 75 µM. The minimal inhibitory concentration (MIC) with Candida sp. is no less than 59 µM; in experiment [24], no less than 49 µM; in [25] it was 28 µM (≈ 30.4 µg/mL); in [26] it was no less than 75 µM.
In the case of `CC[C@H](C)[C@@H]1NC(=O)[C@H](CCCCN)NC(=O)[C@@H](NC(=O)[C@@H](NC(=O)[C@@H](NC(=O)[C@@H](NC(=O)[C@@H]2CCCN2C(=O)[C@H](CC(C)C)NC(=O)[C@H](Cc2ccccc2)NC(=O)[C@H](CC(N)=O)NC(=O)[C@H](C)NC(=O)[C@H](C)NC(=O)[C@H](CC(C)C)NC(=O)CNC(=O)[C@H](C)NC(=O)[C@H](CC(C)C)NC(=O)[C@H](CC(C)C)NC(=O)[C@@H]2CCCN2C(=O)[C@H](CC(C)C)NC(=O)[C@@H](N)Cc2ccccc2)[C@@H](C)O)[C@@H](C)CC)[C@@H](C)CC)CSSC[C@@H](C(=O)O)NC(=O)[C@H](CCCCN)NC(=O)[C@H](Cc2ccc(O)cc2)NC(=O)[C@H](CO)NC1=O` [FLPLLAGLAANFLPTIICKISYKC], the MIC in the experiment on Serratia marcescens was no less than 76.6 µM; against Escherichia coli, 38.3 µM (≈ 99.9 µg/mL); with Saccharomyces cerevisiae, 19.2 µM (≈ 50 µg/mL); in experiment [22] it was 3.83 µM (≈ 9.99 µg/mL); in [27], 19.2 µM (≈ 50 µg/mL); in [28], 9.58 µM (≈ 25 µg/mL). Also, the MIC against Candida albicans was 19.2 µM (≈ 50 µg/mL); in [29] it was 3.83 µM (≈ 9.99 µg/mL); against Pseudomonas putida, no less than 57.5 µM; in experiment [30], 19.2 µM (≈ 50 µg/mL); in [31], 57.5 µM (≈ 150 µg/mL); in experiment [32] it was no less than 76.6 µM. For the same compound, the MIC is 0.958 µM (≈ 2.5 µg/mL) in [25] and 9.58 µM (≈ 25 µg/mL) in [33].
